Data on six molecules can be found in US20230183647A1, “METHOD FOR GENERATING FUNCTIONAL SKELETAL MUSCLE FIBERS INNERVATED BY MOTONEURONS” (ASSOCIATION FRANCAISE CONTRE LES MYOPATHIES (AFM), priority 2020, published 2023).

Experiment [1] deals with hiPSC-derived innervated myofibers. As to the kind of experiment: Transient Calcium influx (Calcium handling) in hiPSC-derived innervated myofibers after drug addition. The class given is cell-based, human. To be noted: for Calcium release: cells at D45, single addition. The protocol:
A-D. We measured the transient Calcium influx in control myofibers prior to drug addition (0 hr) and at different time points after a single addition of different concentrations of each drug. Violin plots display the number of influx per minute and per fiber (n>50). Statistical significance was determined using ANOVA multiple comparison test followed by Brown-Forsythe and Welch correction and comparison to the basal condition (prior to drug addition). A. 0; 2 and 20 μM for Glutamate, B. 0; 1 and 10 μM for Salbutamol. C. 0; 0.5 and 1 mM for Carisoprodol. D. 0; 10 and 100 μM for Mexiletine.
Calcium transients were measured after addition to the cell culture medium of FLUO-8AM fluorescent Ca^2+ indicator (AAT Bioquest). Cells were incubated for 30 min at 37° c in DM+I medium containing 5 μM Fluo8-AM and 0.04% Pluronic acid before imaging on a Fast Imaging Observer system (Axio Observer.Z1/7; Zeiss) with a 10× lens (10×/0.30 M27 DIC I EC Plan-Neofluar; […]). Fluorescence was excited at 488 nm and emission collected at >509 nm. Images were acquired as time series. Different regions were tracked to record the fluorescent intensity at a 10× magnification during 30 seconds and an interval of 200,0 ms corresponding to 151 frames. Analysis was performed using the Zen pro software (Zeiss). ROI was created for selected fibers then intensity mean for each fiber was exported and Calcium transients were calculated by counting the number of peaks intensity for each graph.
For drug treatment, cells were seeded and differentiated in 6 to 12-well plates for 45 days. We tested the activity of Mexiletine (M2727, Sigma Aldrich, 10; 100 μM diluted in methanol), Carisoprodol (C8759, Sigma Aldrich, […]; […] diluted in ethanol), Salbutamol (S8260, Sigma Aldrich, 1 μM; 10 μM, diliuted in methanol) and L-Glutamic acid potassium salt monohydrate (G1501, Sigma Aldrich, 2 μM; 20 μM diluted in H2O) added at 0.1% in the culture medium on fiber contractions. Cell contractions were captured as described for Calcium handling measurements.
To evaluate the potential application of hiPSC-derived innervated myofibers as a preclinical model for drug testing, we tested the response to different classes of pharmaceutical agents by real time video microscopy and Calcium handling analysis. Cells at D45 were treated for different durations with different concentrations of each molecule at (FIG. 8A-D).

For another experiment, the system named is hiPSC-derived myofibers. In kind it is cell-based, human.

Entries after “also recorded” stand apart in the source; their conditions may differ.

In the case of `CCCC(C)(COC(N)=O)COC(=O)NC(C)C` (centres unmarked) [Carisoprodol], in experiment [1] (0.5 to 1 mM, cells at D45), the “muscle contraction (Calcium influx)” value was “reduces muscle contraction 3 to 4 hrs”.
Take `N[C@@H](CCC(=O)[O-])C(=O)[O-].O.[K+].[K+]` [Glutamate, L-Glutamic acid potassium salt monohydrate]: the Calcium release result in experiment [1] (2 μM) was “did not observe any difference”; in experiment [1] (20 μM), “increased activity 20 to 30 minutes”.
As for `Cc1cccc(C)c1OCC(C)N` (centres unmarked) [Mexiletine], the Calcium handling entry in experiment [1] (10 μM, cells at D45) is on record as “decrease in Calcium handling 2 hrs”; in experiment [1] (100 μM, cells at D45) it was “sharp decrease 1 to 2 hrs”.
Consider `CC(C)(C)NCC(O)c1ccc(O)c(CO)c1` (centres unmarked) [Salbutamol], for which, in experiment [1] (1 μM and 10 μM, cells at D45), the “Ca2+ handling” value is given as “decreases Ca^2+ handling as early as 4 hours”.
Regarding `NC1=N[C@H](O)[C@H]2[C@H]3O[C@]4(O)O[C@@H]([C@@H](O)[C@@]2(N1)[C@@H]4O)[C@]3(O)CO` [Tetrodotoxin], the “cell contraction after drug addition (mean number of contractions)” value in the experiment on hiPSC-derived myofibers is listed as “irreversibly blocked; also recorded: irreversibly inhibits cell contraction”.
Same read-out and setting: to Alpha Bungarotoxin belongs “irreversibly blocked; also recorded: irreversibly inhibits cell contraction”.
